# Results taken from patent US20130253022A1 (FOX CHASE CHEMICAL DIVERSITY CENTER, INC., priority 2010, published 2013).
# Key:
# 6-Hz psychomotor seizure = experiment: 6 Hz psychomotor seizure test, mouse; assay type: in vivo, mice; details: ip
# Experimental: Methods to measure anticonvulsant activity: All tests were conducted by the Anticonvulsant Screening Program (ASP) of the National Institute of Neurological Disease and Stroke at the National Institutes of Health. The 6 Hz Seizure Test: Compounds were further tested in the 6-Hz psychomotor seizure model. (Barton et al. Pharmacological characterization of the 6 Hz psychomotor seizure model of partial epilepsy. Epilepsy Res. 2001, 47, 217-227). This model is used to detect […] that may be useful for the treatment of therapy-resistant partial seizures. For this test, an alternative electrical stimulation paradigm is used with a low frequency (6 Hz), long duration (3 seconds) corneal stimulation. The seizure evoked by this low frequency stimulation is characterized by immobility, forelimb clonus, Straub tail and facial automatisms. Mice are tested from 15 min to 4 hours following an intraperitoneal dose of 100 mg/kg. Abolition of the clonic seizures indicates the ability of a compound to prevent partial or psychomotor seizures.
# [1] = tested on: MES-induced seizure spread; experiment: Maximal electroshock seizure (MES) test, mouse; assay type: in vivo, mice; details: for Duration of action MES: Mouse Maximal Electroshock (MES) test at 100 mg/kg, i.p.; for ED50: ip, mouse
# Experimental: Seizure-related assays, Maximal electroshock test: The most definitive assay for anti-seizure activity is the maximal electroshock (MES) test (Swinyard, E. A. Laboratory evaluation of antiepileptic drugs: review of laboratory methods, Epilepsia, 1969, 10, 107-119). […] With both rodent assays, the duration of action is of high importance as well as the potency of the response.
# Methods to measure anticonvulsant activity: All tests were conducted by the Anticonvulsant Screening Program (ASP) of the National Institute of Neurological Disease and Stroke at the National Institutes of Health.
# The Maximal Electroshock Seizure (MES) or Maximal Seizure Pattern Test: The MES is a model for generalized tonic-clonic seizures (Putnam and Merritt. Experimental determination of the anticonvulsant properties of some phenyl derivatives. Science 1937, 85, 113-118). It is highly reproducible with consistent endpoints. The behavioral and electrographic seizures generated in this model are consistent with the human disorder. This model identifies those compounds which prevent seizure spread.
# In the MES test, an electrical stimulus of 0.2 s in duration (50 mA in mice and 150 mA in rat at 60 Hz) is delivered via corneal electrodes primed with an electrolyte solution containing an anesthetic agent. Mice are tested at 30 minutes and 4 hours following doses of 30, 100 and 300 mg/kg of test compound. Test compounds are administered intraperitoneally to the mice. Rats are tested at time intervals between 0.25 and 4 hours following a standard oral dose of 30 mg/kg. Abolition of the hindlimb tonic extensor component indicates the test compound's ability to inhibit MES-induced seizure spread.
# Hippocampal Cultures [2] = experiment: Neuroprotection from glutamate excitotoxicity, CFDA (neuronal viability) assay; assay type: cell-based; details: Rattus norvegicus; 30 μM glutamate 5 min, hippocampal cultures, 4 hour test period; read-out: NP from Glutamate CFDA EC50
# From the text: (§1) Cell cultures: All compounds are screened with dissociated hippocampal cultures derived from embryonic day 18 rats as the primary test system. With this preparation, primary neurons are used to test for toxicity as well as neuroprotection in a highly relevant experimental system to epilepsy. In brief, hippocampal tissue are obtained commercially through Brain Bits (Springfield, Ill.) and cultures prepared as previously described by Brewer (Brewer, G. J. Serum-free B27/neurobasal medium supports differentiated growth of neurons from the striatum, substantia nigra, septum, cerebral cortex, cerebellum and dentate gyms, J. Neurosci. Res. 1995, 42, 674-683). The hippocampal neurons are platted at low density (10,000 cell/well) in a 96-well format and maintained in serum-free medium consisting of Neurobasal Medium supplemented with B27 and GlutaMAX (Gibco). Pre-coated poly-L-lysine coated plates are used because of the preferential adherence and survival of hippocampal neurons on this matrix support.
# (§2) Potent neuroprotection is the distinguishing characteristic that separates this program's anticonvulsants from all other commercial drugs for epilepsy. The experimental details and the rationale for the implemented assays are essential in differentiating these compounds from that of others. The central objective of all neuroprotective assays was their relevancy to excitotoxicity and oxidative stress related to epilepsy. Both the amount of glutamate and hydrogen peroxide used in the assays, as well as the time of treatment and duration of the experiment, were designed to be relevant to epilepsy. Further, all time parameters employed in these studies were empirically determined to be within the limits of reversible toxic events, yet using amounts of glutamate and hydrogen peroxide that were relevant to the disease. In regard to glutamate toxicity, a critical feature was the duration of treatment of the hippocampal neurons. The rational for using a short 5 min treatment with glutamate was based on the observation of Randall and Thayer (Randall, R. D.; Thayer, S. A. Glutamate-induced calcium transient triggers calcium overload and neurotoxicity in rat hippocampal neurons, J. Neurosci. 1992, 12, 1882-1895). […] The rationale is that this intense burst of glutamate and resulting calcium overload is relevant to seizures and therefore was important data to capture in the screening assay. The amount of glutamate (30 μM) employed in our screening was based on the basal levels of glutamate observed in microdialysis measurements of hippocampus from epileptogenic patients (Cavus et al. Decreased hippocampal volume on MRI is associated with increased extracellular glutamate in epilepsy patients, Epilepsia, 2008, 49, 1358-1366). In regard to hydrogen peroxide, the amount employed (10 μM) was detected in the hippocampus of rats after kainate-induced status epilepticus (Jarrett et. al., Mitochondrial DNA damage and impaired base excision repair during epileptogenesis, Neurobiol. Dis. 2008, 30, 130-138). To produce neural damage and death with these amounts of glutamate and hydrogen peroxide, the cultures were changed to a medium with significant depletion of antioxidant components in the defined medium supplement B-27 just prior to treatment with the compounds. […]
# Hippocampal Cultures [3] = experiment: Neuroprotection from glutamate excitotoxicity, propidium iodide (cell death) assay; assay type: cell-based; details: Rattus norvegicus; 30 μM glutamate 5 min, hippocampal cultures, 4 hour test period; read-out: NP from Glutamate PI EC50
# From the text: as §1
# as §2, with “compounds. This was performed to obtain a significant and reproducible toxic signal in the hippocampal neurons and because loss of antioxidant control may be a component of epileptogenesis (Waldbaum and Patel, Mitochondria, oxidative stress and temporal lobe epilepsy, Epilepsy Res. 2010 88, 23-45; Wu et al., Mitochondrial DNA mutation-elicited oxidative stress, oxidative damage, and altered gene expression in cultured cells of patients with MERRF syndrome, Mol. Neurobiol. 2010, 41, 256-266). Neuroprotection studies with hydrogen peroxide were conducted with cultures that were between day 12 and day 18. Studies of neuroprotection glutamate were conducted between day 19 and day 22.” for “compounds.”
Structure (SMILES),ED50 (6-Hz psychomotor seizure) [mg/kg],Duration of action MES [1] [h],ED50 [1] [mg/kg],EC50 (Hippocampal Cultures [2]) [nM],EC50 (Hippocampal Cultures [3]) [nM]
"NS(=O)(=O)NCC(F)(F)c1ccccc1Cl [Example 2, 2,2-Difluoro-2-(2-chlorophenyl)-ethyl-1-sulfamide]",28,4,54,10,1
"NS(=O)(=O)NCC(F)(F)c1ccccc1F [Example 1, 2,2-Difluoro-2-(2-fluorophenyl)-ethyl-1-sulfamide]",18,4,50,1,1
